Reference: patent EP0211268B1, “Slow-release topical formulations” (Zappia, Vincenzo, priority 1985, dated 1987)

Experiment: equilibrium dialysis test (slow release of minoxidil ion through a dialysis membrane)
Type: physicochemical
Details: 10 ml solution containing 0.45 mmoles, pH 4.4, equilibrated through a dialytic barrier with 130 ml of water at pH 4.4
Excerpt: A direct experimental evidence of the slow-release mechanism, characterizing the minoxidil-polyanion salts, is obtained by dialysis equilibrium tests, as shown in the enclosed Figure. […] If the dialysis solution is substituted, the equilibrium is recovered after dissociation of a further amount of salt. This process mimicks "in vitro" the drug's slow release action at the skin level, characterized by a constant and uniform absorption of the active principle, whose availability in time is provided by the continuous dissociation of the salt.
When the equilibrium conditions are reached at the points marked by the arrows, the equilibrium solution is removed, substituting it with 130 ml of water, till reestablishment of the new equilibrium conditions.

## Cl.Nc1cc(N2CCCCC2)nc(N)[n+]1[O-] [minoxidil chloride]
  minoxidil found outside the dialysis membrane at equilibrium: about 90%
